Experimental findings from patent EP0675900B1, “ANTIBIOTICS GE 37468 A, B AND C” (Biosearch Italia S.p.A., priority 1992, dated 1994) are described below.

Structures are written as SMILES.

The subject of series [1] is gram positive bacteria and gram positive as well as gram negative anaerobes. Briefly: Minimal inhibitory concentrations (MIC) by broth microdilution, in vitro antimicrobial activity. The series is classed as cell-based. The note with it: summary in words of the in vitro spectrum; the MIC values of Table IV are printed only as an image.
For series [2], the system named is Staphylococcus aureus Smith. Briefly: Experimental septicemia in mice. In kind it is in vivo, CD1 mice. The note with it: iv, 168 h, mice infected intraperitoneally with 10^6 CFU/mouse S. aureus Smith, compound given intravenously once immediately after infection, Spearman and Kaerber method from survival at day 7. Here is the method:
The antimicrobial activity of antibiotic GE37468A was also confirmed in experimental septicemia in mice.
Groups of five CD1 mice of both sexes (Charles River, average weight 18-22 g) were infected intraperitoneally with 10^6 CFU/mouse of Staphylococcus aureus Smith suspended in 0.5 ml of 5% bacteriological mucin (Difco). The test compound was administered intravenously once, immediately after infection, in a sterile solution containing 10% dimethylsulfoxide, 10% Cremophor EL®, 20% 0.07 M phosphate buffer (pH 8), 60% glucose solution (5%).

Series [3] in a line: Hydrolytic degradation in acidic aqueous buffer. In kind it is physicochemical. The note with it: kept for 6 to 18 hours in an aqueous buffer solution having a pH value between 3 and 4. The text has this: Antibiotics GE37468B and GE37468C seem to derive from antibiotic GE37468A via hydrolytic degradation. […] The physico-chemical characteristics of these two products are as follows: […]

Take `Cc1oc2nc1C(=O)NC(CC(N)=O)c1nc(cs1)C(=O)NC(Cc1ccccc1)C1=NC(CS1)C(=O)NC(Cc1ccc(O)cc1)C(=O)N1C(O)CC(C)C1c1nc(cs1)-c1nc(cs1)-c1nc(-c3nc(C(N)=O)cs3)ccc1-2` (centres unmarked) [GE37468B]: the antimicrobial activity result in series [1] was “mainly active against gram positive bacteria and gram positive as well as gram negative anaerobes”.
Still for that read-out and setting: the same measure for `C=C(NC(=O)c1csc(-c2ccc3c(n2)-c2csc(n2)-c2csc(n2)C2C(C)CC(O)N2C(=O)C(Cc2ccc(O)cc2)NC(=O)C2CSC(=N2)C(Cc2ccccc2)NC(=O)c2csc(n2)C(CC(N)=O)NC(=O)c2nc-3oc2C)n1)C(N)=O` (centres unmarked) [GE37468C]: “mainly active against gram positive bacteria and gram positive as well as gram negative anaerobes”.
For the compound `C=C(NC(=O)C(=C)NC(=O)c1csc(-c2ccc3c(n2)-c2csc(n2)-c2csc(n2)C2C(C)CC(O)N2C(=O)C(Cc2ccc(O)cc2)NC(=O)C2CSC(=N2)C(Cc2ccccc2)NC(=O)c2csc(n2)C(CC(N)=O)NC(=O)c2nc-3oc2C)n1)C(=O)O` (centres unmarked) [GE37468A], in series [2], the 50% effect level (ED50) was put at a dose of 3.2 mg/kg. Also, the “stability in aqueous buffer solution (hydrolytic degradation)” value in series [3] was “yields substantial amounts of both antibiotic GE37468B and GE37468C”. Besides, in series [1], the antimicrobial activity entry is “mainly active against gram positive bacteria and gram positive as well as gram negative anaerobes”.

By ED50 is commonly meant the dose at which the effect has come halfway, by size or by number of responders. The low end stands for greater potency, the high end for weaker potency.
